# Patent US20260138958A1, “SUBSTITUTED N-PHENYLURACILS AND SALTS THEREOF, AND USE THEREOF AS HERBICIDAL ACTIVE SUBSTANCES” (Bayer Aktiengesellschaft, priority 2022, published 2026)
# Experiments:
# Assay type in all cases: in vivo
# [1] = test system: Polygonum convolvulus (POLCO); assay: Post-emergence herbicidal action, greenhouse pot test
# Description: (§1) Seeds of monocotyledonous and dicotyledonous weeds and crop plants were placed in sandy loam in plastic or wood-fibre pots, covered with soil and cultivated in a greenhouse under controlled growth conditions. 2 to 3 weeks after sowing, the test plants were treated at the one-leaf stage. The compounds of the invention, formulated in the form of wettable powders (WP) or as emulsion concentrates (EC), were then sprayed onto the green parts of the plants as aqueous suspension or emulsion with addition of 0.5% additive at a water application rate of 600 l/ha (converted). After the test plants had been kept in the greenhouse under optimum growth conditions for about 3 weeks, the activity of the preparations was rated visually in comparison to untreated controls. For example, 100% activity=the plants have died, 0% activity=like control plants.
# [2] = test system: Pharbitis purpurea (PHBPU); assay: as above
# Description: as §1
# [3] = test system: Tripleurospermum inodorum (MATIN); assay: as above
# Description: as §1
# [4] = test system: Abutilon theophrasti (ABUTH); assay: as above
# Description: as §1
# Lolium rigidum (LOLRI) = assay: as above
# Description: as §1
# [5] = test system: Digitaria sanguinalis (DIGSA); assay: as above
# Description: as §1
# Setaria viridis (SETVI) = assay: as above
# Description: as §1
# Viola tricolor (VIOTR) = assay: as above
# Description: as §1
# Bassia scoparia (KCHSC) = assay: as above
# Description: as §1
# [6] = test system: Echinochloa crus-galli (ECHCG); assay: as above
# Description: as §1
# [7] = test system: Amaranthus retroflexus (AMARE); assay: as above
# Description: as §1
# Veronica persica (VERPE) = assay: as above
# Description: as §1
# [8] = test system: Alopecurus myosuroides (ALOMY); assay: as above
# Description: as §1
# [9] = test system: Triticum aestivum (TRZAS); assay: Post-emergence crop plant compatibility, greenhouse pot test; conditions: crop plant, post-emergence, 1.25 g/ha
# Description: as §1
# The observed effects on selected crop plants are reported here in comparison to the untreated controls (values in %).
Compound,Post-emergence effect at 5 g/ha against POLCO in % [1] [%],Post-emergence effect at 20 g/ha against POLCO in % [1] [%],Post-emergence effect at 5 g/ha against PHBPU in % [2] [%],Post-emergence effect at 20 g/ha against PHBPU in % [2] [%],Post-emergence effect at 20 g/ha against MATIN in % [3] [%],Post-emergence effect at 1.25 g/ha against ABUTH in % [4] [%],Post-emergence effect at 5 g/ha against ABUTH in % [4] [%],Post-emergence effect at 20 g/ha against ABUTH in % [4] [%],Post-emergence effect at 20 g/ha against LOLRI in % (Lolium rigidum (LOLRI)) [%],Post-emergence effect at 5 g/ha against DIGSA in % [5] [%],Post-emergence effect at 20 g/ha against DIGSA in % [5] [%],Post-emergence effect at 1.25 g/ha against SETVI in % (Setaria viridis (SETVI)) [%],Post-emergence effect at 5 g/ha against SETVI in % (Setaria viridis (SETVI)) [%],Post-emergence effect at 20 g/ha against SETVI in % (Setaria viridis (SETVI)) [%],Post-emergence effect at 1.25 g/ha against VIOTR in % (Viola tricolor (VIOTR)) [%],Post-emergence effect at 5 g/ha against VIOTR in % (Viola tricolor (VIOTR)) [%],Post-emergence effect at 20 g/ha against VIOTR in % (Viola tricolor (VIOTR)) [%],Post-emergence effect at 1.25 g/ha against KCHSC in % (Bassia scoparia (KCHSC)) [%],Post-emergence effect at 5 g/ha against KCHSC in % (Bassia scoparia (KCHSC)) [%],Post-emergence effect at 20 g/ha against KCHSC in % (Bassia scoparia (KCHSC)) [%],also measured
Cn1c(C(F)(F)F)cc(=O)n(-c2cc(Oc3ccccc3OCC(=O)OC(C#N)C3CC3)c(Cl)cc2F)c1=O (stereo not drawn) [I.7-4],100,100,100,100,100,100,100,100,100,100,100,100,100,100,100,100,100,100,100,100,Post-emergence effect at 1.25 g/ha against PHBPU in % ([2]; 1.25 g/ha): 80%; Post-emergence effect at 5 g/ha against MATIN in % ([3]; 5 g/ha): 100%; Post-emergence effect at 5 g/ha against ECHCG in % [6]: 100%; Post-emergence effect at 20 g/ha against ECHCG in % [6]: 100%; Post-emergence effect at 1.25 g/ha against AMARE in % [7]: 100%; Post-emergence effect at 5 g/ha against AMARE in % [7]: 100%; Post-emergence effect at 20 g/ha against AMARE in % [7]: 100%; Post-emergence effect at 1.25 g/ha against VERPE in % (Veronica persica (VERPE)): 100%; Post-emergence effect at 5 g/ha against VERPE in % (Veronica persica (VERPE)): 100%; Post-emergence effect at 20 g/ha against VERPE in % (Veronica persica (VERPE)): 100%; Post-emergence effect at 5 g/ha against ALOMY in % [8]: 80%; Post-emergence effect at 20 g/ha against ALOMY in % [8]: 100%; Post-emergence effect at 1.25 g/ha against TRZAS in % [9]: 20%
Cn1c(C(F)(F)F)cc(=O)n(-c2cc(Oc3ccccc3OCC(=O)OCC3(F)CC3)c(Cl)cc2F)c1=O [I.7-6],100,100,100,100,100,100,100,100,80,100,100,100,100,100,100,100,100,100,100,100,Post-emergence effect at 1.25 g/ha against DIGSA in % ([5]; 1.25 g/ha): 100%; Post-emergence effect at 5 g/ha against ECHCG in % [6]: 100%; Post-emergence effect at 20 g/ha against ECHCG in % [6]: 100%; Post-emergence effect at 1.25 g/ha against AMARE in % [7]: 100%; Post-emergence effect at 5 g/ha against AMARE in % [7]: 100%; Post-emergence effect at 20 g/ha against AMARE in % [7]: 100%; Post-emergence effect at 1.25 g/ha against VERPE in % (Veronica persica (VERPE)): 100%; Post-emergence effect at 5 g/ha against VERPE in % (Veronica persica (VERPE)): 100%; Post-emergence effect at 20 g/ha against VERPE in % (Veronica persica (VERPE)): 100%; Post-emergence effect at 1.25 g/ha against ALOMY in % ([8]; 1.25 g/ha): 80%; Post-emergence effect at 5 g/ha against ALOMY in % [8]: 100%; Post-emergence effect at 20 g/ha against ALOMY in % [8]: 100%; Post-emergence effect at 1.25 g/ha against TRZAS in % [9]: 20%
